Assay results published in US10299999B2, “Flavour composition comprising menthol and menthane carboxamides” (Givaudan, S.A., priority 2011, dated 2019).

Test: Toothpaste sensory panel: flavours A-C at 1% in silica toothpaste base, scored 0-10 for cooling, tingling, freshness and overall preference
Format: in vivo, naive volunteers
Conditions: low levels replacing high levels of menthol in a toothpaste flavour
Protocol: The Flavours were each incorporated into a standard silica toothpaste base at 1%:
All three toothpastes were coded and given to 37 naive volunteers. The volunteers were asked to brush the teeth for 30 seconds and score each toothpaste (0-10 scale) for cooling, tingling and freshness at each of six time points: 0 minutes, 5 minutes, 10 minutes, 20 minutes, 30 minutes and 60 minutes. At the end of the 60 minutes, they were also asked for their overall preference scores (0-10 scale).

## CC(C)[C@@H]1CC[C@@H](C)C[C@H]1C(=O)Nc1ccc(CC#N)cc1 (stereo in doubt) [Evercool 180, N-(4-cyanomethylphenyl) p-menthanecarboxamide]
  sensorial benefits compared with the flavour with the high levels of menthol: superior sensorial benefits
